Reference: ChEMBL document CHEMBL3352742, “Synthesis, molecular docking and biological evaluation of coumarin derivatives containing piperazine skeleton as potential antibacterial agents” (Bioorg Med Chem, 2014)
≈ marks a conversion by molar mass, not a printed value.

What was measured:
[1] = Toxicity in human erythrocyte assessed as hemolysis by measuring hemoglobin release after 3 hrs; type: cell-based
[2] = test system: Bacillus subtilis; assay: Antibacterial against Bacillus subtilis ATCC 530 after 24 hrs by two-fold serial dilution method; type: functional; conditions: ATCC 530, 24 h
[3] = Inhibition of Staphylococcus aureus FabI assessed as oxidation of NADH to NAD+ by spectrophotometrically
[4] = test system: Escherichia coli; assay: Antibacterial against Escherichia coli ATCC 25922 after 24 hrs by two-fold serial dilution method; type: functional; conditions: ATCC 25922, 24 h
[5] = test system: Staphylococcus aureus; assay: Antibacterial against Staphylococcus aureus ATCC 25923 after 24 hrs by two-fold serial dilution method; type: functional; conditions: ATCC 25923, 24 h
[6] = Cytotoxicity against human macrophages assessed as cell viability after 24 hrs by MTT assay; type: functional, cell-based; conditions: Macrophage
[7] = test system: Pseudomonas aeruginosa; assay: Antibacterial against Pseudomonas aeruginosa ATCC 27853 after 24 hrs by two-fold serial dilution method; type: functional; conditions: ATCC 27853, 24 h

Row | MIC [2] [µg/mL] | IC50 [3] [µM] | MIC [4] [µg/mL] | MIC [5] [µg/mL] | MIC [7] [µg/mL] | Compound | LC30 [1] [µg/mL] | IC50 [6] [µM]
1 | 0.861 (≈ 2.18 µM) | 0.83 | > 50 | 0.327 (≈ 0.829 µM) | > 50 | COc1ccc(N2CCN(C(=O)COc3cc(=O)oc4ccccc34)CC2)cc1 | > 10 | 192
2 | 6.96 (≈ 17.6 µM) | 4.62 | > 50 | 0.837 (≈ 2.12 µM) | > 50 | COc1cccc(N2CCN(C(=O)COc3cc(=O)oc4ccccc34)CC2)c1 | > 10 | 141
3 | 7.18 (≈ 18 µM) | 21.9 | > 50 | 28.5 (≈ 71.4 µM) | > 50 | O=C(COc1cc(=O)oc2ccccc12)N1CCN(c2ccccc2Cl)CC1 |  | 
4 | > 50 | 45.5 | 33.6 (≈ 92.3 µM) | 41.5 (≈ 114 µM) | > 50 | O=C(COc1cc(=O)oc2ccccc12)N1CCN(c2ccccc2)CC1 |  | 
5 | 3.88 (≈ 9.46 µM) | 5.54 | > 50 | 2.52 (≈ 6.15 µM) | 49.8 (≈ 121 µM) | COc1ccccc1N1CCN(CC(O)COc2cc(=O)oc3ccccc23)CC1 (stereo not drawn) | > 10 | 256
6 | 2.94 (≈ 7.37 µM) | 26.6 | > 50 | > 50 | 46 (≈ 115 µM) | O=C(COc1cc(=O)oc2ccccc12)N1CCN(c2cccc(Cl)c2)CC1 |  | 
7 | 34.4 (≈ 87.7 µM) | 42.5 | > 50 | 46.4 (≈ 118 µM) | > 50 | Cc1ccc(N2CCN(C(=O)COc3cc(=O)oc4ccccc34)CC2)c(C)c1 |  | 
8 | 4.51 (≈ 10.4 µM) | 8.41 | > 50 | 23.2 (≈ 53.6 µM) | > 50 | O=C(COc1cc(=O)oc2ccccc12)N1CCN(c2cccc(Cl)c2Cl)CC1 | > 10 | 223
9 | 11 (≈ 27.8 µM) | 7.15 | > 50 | 8.19 (≈ 20.8 µM) | > 50 | COc1ccccc1N1CCN(C(=O)COc2cc(=O)oc3ccccc23)CC1 | > 10 | 164
10 | 31.3 (≈ 81.9 µM) | 43.2 | > 50 | > 50 | > 50 | O=C(COc1cc(=O)oc2ccccc12)N1CCN(c2ccccc2F)CC1 |  | 
11 | 34.8 (≈ 91 µM) | 37.6 | > 50 | 29.1 (≈ 76.1 µM) | > 50 | O=C(COc1cc(=O)oc2ccccc12)N1CCN(c2ccc(F)cc2)CC1 |  | 

The remaining lines, values behind:

Row | Compound | MIC [2] [µg/mL] | IC50 [3] [µM] | MIC [4] [µg/mL] | MIC [5] [µg/mL] | MIC [7] [µg/mL] | LC30 [1] [µg/mL] | IC50 [6] [µM]
12 | O=c1cc(OCC(O)CN2CCN(c3cccc(Cl)c3Cl)CC2)c2ccccc2o1 (stereo not drawn) | 18.2 (≈ 40.4 µM) | 12.5 | > 50 | 26 (≈ 57.8 µM) | > 50 |  | 
13 | O=c1cc(OCC(O)CN2CCN(c3ccccc3)CC2)c2ccccc2o1 (stereo not drawn) | 37.9 (≈ 99.7 µM) | 47.8 | > 50 | > 50 | > 50 |  | 
14 | Cc1ccc(N2CCN(CC(O)COc3cc(=O)oc4ccccc34)CC2)c(C)c1 (stereo not drawn) | 2.86 (≈ 6.99 µM) | 6.23 | > 50 | 1.44 (≈ 3.53 µM) | > 50 | > 10 | 127
15 | O=C(COc1cc(=O)oc2ccccc12)N1CCN(c2cccc(C(F)(F)F)c2)CC1 | 0.916 (≈ 2.12 µM) | 1.82 | > 50 | 1.08 (≈ 2.5 µM) | > 50 | > 10 | 188
16 | O=c1cc(OCC(O)CN2CCN(c3ccc([N+](=O)[O-])cc3)CC2)c2ccccc2o1 (stereo not drawn) | 3.65 (≈ 8.58 µM) | 3.82 | > 50 | 2.4 (≈ 5.63 µM) | 33 (≈ 77.6 µM) | > 10 | 153
17 | CC1(C)S[C@@H]2[C@H](NC(=O)Cc3ccccc3)C(=O)N2[C@H]1C(=O)O [PENICILLIN G] | 0.752 (≈ 2.25 µM) |  | 22.4 (≈ 66.9 µM) | 1.69 (≈ 5.04 µM) | 22 (≈ 65.7 µM) | > 10 | 186
18 | O=c1cc(OCC(O)CN2CCN(c3ccccc3F)CC2)c2ccccc2o1 (stereo not drawn) | > 50 | 71.1 | > 50 | > 50 | > 50 |  | 
19 | O=c1cc(OCC(O)CN2CCN(c3cccc(Cl)c3)CC2)c2ccccc2o1 (stereo not drawn) | 26 (≈ 62.6 µM) | 31.4 | 40.6 (≈ 97.8 µM) | > 50 | > 50 |  | 
20 | O=c1cc(OCC(O)CN2CCN(c3ccccc3Cl)CC2)c2ccccc2o1 (stereo not drawn) | 13.9 (≈ 33.6 µM) | 17.7 | > 50 | 11.6 (≈ 28.1 µM) | > 50 |  | 
21 | O=c1cc(OCC(O)CN2CCN(c3ccc(F)cc3)CC2)c2ccccc2o1 (stereo not drawn) | > 50 | 62.9 | 40.4 (≈ 101 µM) | > 50 | > 50 |  | 
22 | O=c1cc(OCC(O)CN2CCN(c3cccc(C(F)(F)F)c3)CC2)c2ccccc2o1 (stereo not drawn) | 1.08 (≈ 2.4 µM) | 0.97 | > 50 | 0.957 (≈ 2.13 µM) | > 50 | > 10 | 172
23 | O=c1cc(OCC(O)CN2CCN(c3ccc(Cl)c(Cl)c3)CC2)c2ccccc2o1 (stereo not drawn) | 0.339 (≈ 0.754 µM) | 22.3 | > 50 | > 50 | > 50 |  | 
24 | O=C(COc1cc(=O)oc2ccccc12)N1CCN(c2ccc([N+](=O)[O-])cc2)CC1 | 1.94 (≈ 4.73 µM) | 11.4 | > 50 | > 50 | > 50 |  | 
25 | O=C(COc1cc(=O)oc2ccccc12)N1CCN(c2ccc(Cl)cc2)CC1 | 15.8 (≈ 39.5 µM) | 35.5 | > 50 | > 50 | > 50 |  | 
26 | O=C(COc1cc(=O)oc2ccccc12)N1CCN(c2ccc(Cl)c(Cl)c2)CC1 | 1.86 (≈ 4.29 µM) | 19.8 | > 50 | > 50 | 48.1 (≈ 111 µM) |  | 
27 | COc1cccc(N2CCN(CC(O)COc3cc(=O)oc4ccccc34)CC2)c1 (stereo not drawn) | 0.612 (≈ 1.49 µM) | 2.73 | > 50 | 1.83 (≈ 4.46 µM) | 17.1 (≈ 41.6 µM) | > 10 | 178
28 | COc1ccc(N2CCN(CC(O)COc3cc(=O)oc4ccccc34)CC2)cc1 (stereo not drawn) | 0.236 (≈ 0.575 µM) | 0.57 | > 50 | 0.355 (≈ 0.865 µM) | > 50 | > 10 | 198
29 | O=c1cc(OCC(O)CN2CCN(Cc3ccccc3)CC2)c2ccccc2o1 (stereo not drawn) | > 50 | 41.3 | > 50 | 23 (≈ 58.4 µM) | > 50 |  | 
